The values that follow come from US9809563B2 (GIFU University, priority 2014, dated 2017).

For data set [1] the following is noted: male, Crl:CD (SD), rat, in vivo, po, 1 mg/kg.
The conditions of data set [2]: rat, in vivo.

Counter-ions that a name gives are not always drawn. Like-named read-outs stand apart in the source and are kept apart here.

Consider `O=C(CN1CCCC1)Nc1ccc(C(c2ccc(NC(=O)CN3CCCC3)cc2)C2CCCCC2)cc1` [maleic acid salt, N,N′-[(cyclohexylmethylene)di-4,1-phenylene]bis[2-(1-pyrrolidinyl)acetamide] maleate], for which the “tmax Time required to reach maximum radioactivity concentration” value in data set [1] is recorded as 4.0 h. Moreover, in data set [2], the “Concentrations of radioactivity in the cerebrum and cerebellum compared with blood” value is listed as “higher than those in the blood”; the “Radioactivity in tissues relative to plasma” value is on record as 100 fold. In addition, in data set [2] (iv, 1 mg/kg), the “Blood concentration of radioactivity/plasma concentration of radioactivity (RB)” value was determined as 10.18, the “Distribution to blood cells (T)” value is reported as 93.7%, the “Radioactivity concentration Blood (Cb)” value stood at 39.7 ng eq./mL and the “Radioactivity concentration Plasma (Cp)” value worked out at 3.9 ng eq./mL. In data set [2] (iv, 10 mg/kg), the “Blood concentration of radioactivity/plasma concentration of radioactivity (RB)” value came to 19.52, the “Distribution to blood cells (T)” value was determined as 96.5%, the “Radioactivity concentration Blood (Cb)” value stood at 407.9 ng eq./mL and the “Radioactivity concentration Plasma (Cp)” value was determined as 20.9 ng eq./mL. Also, in data set [2] (po, 1 mg/kg), the “Blood concentration of radioactivity/plasma concentration of radioactivity (RB)” value is listed as 4.55, the “Distribution to blood cells (T)” value is 86.0%, the “Radioactivity concentration Blood (Cb)” value amounted to 10.0 ng eq./mL and the “Radioactivity concentration Plasma (Cp)” value is 2.2 ng eq./mL.
